In patent US11987588B2, “Modulators of the beta-3 adrenergic receptor useful for the treatment or prevention of heart failure and disorders related thereto” (Arena Pharmaceuticals, Inc., priority 2017, dated 2024) one finds IC50 data, which are given here for ten molecules.

In general, pIC50 refers to −log10 of the IC50, conventionally taken in molar units.

pIC50: −log10 of the molar value.

Chain of Beta-3 Adrenergic Receptor (P13945 whole entry, species assumed): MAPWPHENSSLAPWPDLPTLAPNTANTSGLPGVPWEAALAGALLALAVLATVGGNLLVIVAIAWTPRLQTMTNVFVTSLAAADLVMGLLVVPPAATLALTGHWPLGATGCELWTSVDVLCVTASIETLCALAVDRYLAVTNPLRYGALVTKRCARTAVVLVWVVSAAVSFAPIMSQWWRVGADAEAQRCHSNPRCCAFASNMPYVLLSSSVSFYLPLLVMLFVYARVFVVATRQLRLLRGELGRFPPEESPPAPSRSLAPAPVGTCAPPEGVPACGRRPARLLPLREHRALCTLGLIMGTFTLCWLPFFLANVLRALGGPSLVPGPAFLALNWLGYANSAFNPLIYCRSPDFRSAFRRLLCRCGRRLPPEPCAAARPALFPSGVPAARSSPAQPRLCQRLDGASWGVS

The assay concerns the target Beta-3 Adrenergic Receptor (Homo sapiens (Human), UniProt P13945). Put plainly: Homogeneous Time-Resolved Fluorescence (HTRF) cAMP antagonist assay, IC50 determination. It is filed as cell-based. The conditions noted are these: CHO-K1 cells stably expressing recombinant receptor, isoproterenol at EC90. Summed up:
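CHO-K1 cells stably expressing receptor, 1500 cells/well, preincubated briefly with 10-point 5-fold compound series (top final typically 10 or 100 μM) in PBS with 1 mM IBMX, then challenged with isoproterenol at EC90 for 1 h at room temperature. cAMP read by HTRF against on-plate standard curve; IC50 from dose-response.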
(TR-FRET usually uses a lanthanide donor and a delayed reading to cut background.)
For the molecule `CNS(=O)(=O)c1cccc(OC[C@@H](O)CNC2COC3(CCN(S(=O)(=O)c4cccc(-c5cn(C)nc5C)c4)CC3)C2)c1` (stereo partly drawn) [Compound 68, 3-((2S)-3-(8-(3-(1,3-dimethyl-1H-pyrazol-4-yl)phenylsulfonyl)-1-oxa-8-azaspiro[4.5]decan-3-ylamino)-2-hydroxypropoxy)-N-methylbenzenesulfonamide], the pIC50 was 7.43.

For the molecule `CCn1cc(-c2cccc(S(=O)(=O)N3CCC4(CC3)CC(NC[C@H](O)COc3cccc(S(=O)(=O)NC)c3)CO4)c2)cn1` (stereo partly drawn) [Compound 69, 3-((2S)-3-(8-(3-(1-ethyl-1H-pyrazol-4-yl)phenylsulfonyl)-1-oxa-8-azaspiro[4.5]decan-3-ylamino)-2-hydroxypropoxy)-N-methylbenzenesulfonamide], the pIC50 is 7.68. Next, `CNS(=O)(=O)c1cccc(OC[C@@H](O)CNC2COC3(CCN(S(=O)(=O)c4cccc(-c5cnn(CCO)c5)c4)CC3)C2)c1` (stereo partly drawn) [Compound 70, 3-((2S)-2-hydroxy-3-(8-(3-(1-(2-hydroxyethyl)-1H-pyrazol-4-yl)phenylsulfonyl)-1-oxa-8-azaspiro[4.5]decan-3-ylamino)propoxy)-N-methylbenzenesulfonamide]: 7.59. For `CNS(=O)(=O)c1cccc(OC[C@@H](O)CNC2COC3(CCN(S(=O)(=O)c4cccc(-c5cccc(S(C)(=O)=O)c5)c4)CC3)C2)c1` (stereo partly drawn) [Compound 71, 3-((2S)-2-hydroxy-3-(8-(3′-(methylsulfonyl)biphenyl-3-ylsulfonyl)-1-oxa-8-azaspiro[4.5]decan-3-ylamino)propoxy)-N-methylbenzenesulfonamide], the pIC50 is 7.51. Consider `CNS(=O)(=O)c1cccc(OC[C@@H](O)CNC2COC3(CCN(S(=O)(=O)c4cccc(-c5cccc(C#N)c5)c4)CC3)C2)c1` (stereo partly drawn) [Compound 72, 3-((2S)-3-(8-(3′-cyanobiphenyl-3-ylsulfonyl)-1-oxa-8-azaspiro[4.5]decan-3-ylamino)-2-hydroxypropoxy)-N-methylbenzenesulfonamide], for which the pIC50 was 7.54. Next, `CNS(=O)(=O)c1cccc(OC[C@@H](O)CNC2COC3(CCN(S(=O)(=O)c4cccc(-c5sc(C)nc5C)c4)CC3)C2)c1` (stereo partly drawn) [Compound 73, 3-((2S)-3-(8-(3-(2,4-dimethylthiazol-5-yl)phenylsulfonyl)-1-oxa-8-azaspiro[4.5]decan-3-ylamino)-2-hydroxypropoxy)-N-methylbenzenesulfonamide]: 7.66. Next, `O=S(=O)(NC1CC1)c1cccc(OC[C@@H](O)CNC2COC3(CCN(S(=O)(=O)c4ccc5ccccc5c4)CC3)C2)c1` (stereo partly drawn) [Compound 74, N-cyclopropyl-3-((2S)-2-hydroxy-3-(8-(naphthalen-2-ylsulfonyl)-1-oxa-8-azaspiro[4.5]decan-3-ylamino)propoxy)benzenesulfonamide]: 6.63; `COCCCNS(=O)(=O)c1cccc(OC[C@@H](O)CNC2COC3(CCN(S(=O)(=O)c4ccc5ccccc5c4)CC3)C2)c1` (stereo partly drawn) [Compound 75, 3-((2S)-2-hydroxy-3-(8-(naphthalen-2-ylsulfonyl)-1-oxa-8-azaspiro[4.5]decan-3-ylamino)propoxy)-N-(3-methoxypropyl)benzenesulfonamide]: 7.40. On to `CNS(=O)(=O)c1cccc(OC[C@@H](O)CNC2COC3(CCN(S(=O)(=O)c4cccc(-c5ccn(C)c5)c4)CC3)C2)c1` (stereo partly drawn) [Compound 76, 3-((2S)-2-hydroxy-3-(8-(3-(1-methyl-1H-pyrrol-3-yl)phenylsulfonyl)-1-oxa-8-azaspiro[4.5]decan-3-ylamino)propoxy)-N-methylbenzenesulfonamide], for which the pIC50 is 7.58. Next, `CNS(=O)(=O)c1cccc(OC[C@@H](O)CNC2COC3(CCN(S(=O)(=O)c4cccc(-c5cnn(Cc6ccccc6)c5)c4)CC3)C2)c1` (stereo partly drawn) [Compound 77, 3-((2S)-3-(8-(3-(1-benzyl-1H-pyrazol-4-yl)phenylsulfonyl)-1-oxa-8-azaspiro[4.5]decan-3-ylamino)-2-hydroxypropoxy)-N-methylbenzenesulfonamide]: 7.76.
